From patent US12545681B2, “Compound used as RET kinase inhibitor and application thereof” (TYK Medicines, Inc., priority 2020, dated 2026)
Numbering of substitutions follows the chain as printed.

How the values were obtained:
Ba/F3-KIF5B-RET cells = assay: In vivo efficacy study, subcutaneous Ba/F3-KIF5B-RET tumor in nude mice; parameters: species or system BALB/c nude mice; conditions: 10 mg/kg P.O. BID x 3 weeks
Protocol: Cell culture: Ba/F3-KIF5B-RET cell line was cultured with 1640 medium (Biological Industries)+10%/f fetal bovine serum (BI)+1% double antibody (Penicillin Streptomycin solution, Corning, USA) at 37° C. with 5% CO2. Two passages were performed for one week. When the cell saturation was 80%-90% and the number reached the required level, the cells were collected, counted and inoculated.
Animals: BALB/c nude mice, female, 6-8 weeks of age, weighing 18-22 g. A total of 18 mice were required, provided by Beijing Vital River Laboratory Animal Technology Co., Ltd.
Tumor inoculation: 0.2 ml (2×106) Ba/F3-KIF5B-RET cells (plus stromal gel, volume ratio 1:1) were inoculated subcutaneously on the right posterior dorsum of each mouse, and group dosing was started when the average tumor volume reached about 150-200 mm^3.
Experimental index: Tumor volume and body weight were measured twice a week. Tumor volume was measured by vernier calipers with the formula TV=0.5 a×b2, where a is the long diameter of the tumor and b is the short diameter of the tumor.

Ba/F3-KIF5B-RET-V804L = biological target: T1, Ba/F3-KIF5B-RET-V804L (Homo sapiens, UniProt P07949, V804L); assay: Cell anti-proliferation (CellTiter-Glo), Ba/F3-KIF5B-RET-V804L cells; type: cell-based; conditions: cell viability, 72 h incubation
T1 construct: KIF5B (fusion partner, N-terminal part of kinesin-1 heavy chain, P33176); host or cells: Ba/F3 (murine pro-B cells); the other entry of the earlier key: KIF5B (P33176, Kinesin-1 heavy chain)
T1 sequence (P07949 713-1063 V804L limits assumed): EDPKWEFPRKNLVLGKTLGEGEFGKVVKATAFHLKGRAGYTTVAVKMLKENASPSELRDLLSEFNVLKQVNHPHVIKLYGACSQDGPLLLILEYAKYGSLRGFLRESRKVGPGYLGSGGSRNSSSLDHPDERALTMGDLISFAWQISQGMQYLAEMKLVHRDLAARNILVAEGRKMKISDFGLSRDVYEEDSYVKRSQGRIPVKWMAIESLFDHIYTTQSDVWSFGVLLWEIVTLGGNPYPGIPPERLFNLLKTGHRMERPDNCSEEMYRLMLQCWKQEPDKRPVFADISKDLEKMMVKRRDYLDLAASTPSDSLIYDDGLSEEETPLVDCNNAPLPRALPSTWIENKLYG
Protocol: (§1) Ba/F3-KIF5B-RET, Ba/F3-KIF5B-RET-V804L and Ba/F3-KIF5B-RET-V804M cells were constructed by PreceDo Pharmaceuticals Co., Ltd.
(§2) Ba/F3-KIF5B-RET, Ba/F3-KIF5B-RET-V804L and Ba/F3-KIF5B-RET-V804M medium: RPMI-1640+10% FBS+1% P/S.
(§3) A 1000×solution of the compound was prepared with DMSO, the compound was diluted to 20 times to obtain the final concentration with a growth medium, and 2 μl 1000×cpd was added to 98 μl growth medium.
(§4) Cells were centrifuged and resuspended with growth medium and cell counting was performed using a cell counter. The cell suspension was diluted with growth medium to the desired concentration. 95 uL of the diluted cell suspension was taken out to a 96-well plate. 5 μL of 20×compound solution was added to the 96-well plate to a final DMSO concentration of 0.1% per well. The 96-well plate was incubated for 72 h at 37° C. with 5% CO2.
(§5) The 96-well plate was equilibrated to room temperature before the assay, 50 μl of CellTiter-Glo® Reagent was added to each well, the cells were fully lysed by shaking for 2 minutes on a shaker, incubated for 10 minutes at room temperature, and Paradigm was used to detect and record the […] readings.
(§6) Cell viability was analyzed using Graphpad 7.0 software according to the formula Cell viability (CV %)=(RLU compound−RLU blank)/(RLU control−RLU blank)*100%, and the corresponding IC50 data were calculated, in Table 1, the following names are used: <10.00 nM=A; 10.01-50.0 nM=B; >50 nM=C.

Ba/F3-KIF5B-RET = biological target: T2, Ba/F3-KIF5B-RET (Homo sapiens, UniProt P07949); assay: Cell anti-proliferation (CellTiter-Glo), Ba/F3-KIF5B-RET cells; type: cell-based; conditions: for IC50: cell viability, 72 h incubation, CellTiter-Glo
T2 construct: KIF5B (fusion partner, N-terminal part of kinesin-1 heavy chain, P33176); host or cells: Ba/F3 (murine pro-B cells); the other entry of the earlier key: KIF5B (P33176, Kinesin-1 heavy chain)
T2 sequence (P07949 713-1063 limits assumed): T1 sequence (P07949 713-1063 V804L limits assumed) with L92V
Protocol: as §1, §2, §3, §4, §5, §6

Ba/F3-KIF5B-RET-V804M = biological target: T3, Ba/F3-KIF5B-RET-V804M (Homo sapiens, UniProt P07949, V804M); assay: Cell anti-proliferation (CellTiter-Glo), Ba/F3-KIF5B-RET-V804M cells; type: cell-based; conditions: cell viability, 72 h incubation
T3 construct: KIF5B (fusion partner, N-terminal part of kinesin-1 heavy chain, P33176); host or cells: Ba/F3 (murine pro-B cells); the other entry of the earlier key: KIF5B (P33176, Kinesin-1 heavy chain)
T3 sequence (P07949 713-1063 V804M limits assumed): T1 sequence (P07949 713-1063 V804L limits assumed) with L92M
Protocol: as §1, §2, §3, §4, §5, §6

SMILES	IC50 (Ba/F3-KIF5B-RET-V804L)	IC50 (Ba/F3-KIF5B-RET)	IC50 (Ba/F3-KIF5B-RET-V804M)	also measured
CO[C@]1(C(=O)N[C@@H](C)c2ccc(-n3cc(F)cn3)nc2)CC[C@H](c2nc(Nc3cc(C)[nH]n3)c3cnn(C)c3n2)CC1 [Compound C1]	< 10 nM	< 10 nM	< 10 nM	Tumor Volume(mm^3) 0 day (Ba/F3-KIF5B-RET cells; 0 day): 168.34 mm^3; Tumor Volume(mm^3) 2 days (Ba/F3-KIF5B-RET cells; 2 days): 162.57 mm^3; Tumor Volume(mm^3) 5 days (Ba/F3-KIF5B-RET cells; 5 days): 139.55 mm^3; Tumor Volume(mm^3) 9 days (Ba/F3-KIF5B-RET cells; 9 days): 189.12 mm^3; Tumor Volume(mm^3) 12 days (Ba/F3-KIF5B-RET cells; 12 days): 222.35 mm^3; Tumor Volume(mm^3) 16 days (Ba/F3-KIF5B-RET cells; 16 days): 203.41 mm^3; Tumor Volume(mm^3) 19 days (Ba/F3-KIF5B-RET cells; 19 days): 199.75 mm^3; Tumor Volume(mm^3) 22 days (Ba/F3-KIF5B-RET cells; 22 days): 199.64 mm^3
CO[C@]1(C(=O)N[C@@H](C)c2ccc(-n3cc(F)cn3)nc2)CC[C@H](c2nc(Nc3cc(C)[nH]n3)c3cnn(COCC[Si](C)(C)C)c3n2)CC1 [Compound C2]	10 to 50 nM	> 50 nM	> 50 nM	–
[2H]C([2H])([2H])n1ncc2c(Nc3cc(C)[nH]n3)nc([C@H]3CC[C@](OC)(C(=O)N[C@@H](C)c4ccc(-n5cc(F)cn5)nc4)CC3)nc21 [Compound C3]	< 10 nM	< 10 nM	< 10 nM	–
CCn1ncc2c(Nc3cc(C)[nH]n3)nc([C@H]3CC[C@](OC)(C(=O)N[C@@H](C)c4ccc(-n5cc(F)cn5)nc4)CC3)nc21 [Compound C4]	< 10 nM	< 10 nM	< 10 nM	–
CCn1ncc2c(Nc3cc(C)[nH]n3)nc([C@H]3CC[C@](OC)(C(=O)N[C@@H](C)c4cnc(-n5cc(F)cn5)cn4)CC3)nc21 [Compound C5]	< 10 nM	< 10 nM	< 10 nM	–
CO[C@]1(C(=O)N[C@@H](C)c2ccc(-n3cc(F)cn3)nc2)CC[C@H](c2nc(Nc3cc(C)[nH]n3)c3cnn(CC(F)F)c3n2)CC1 [Compound C6]	< 10 nM	< 10 nM	< 10 nM	–
CO[C@]1(C(=O)N[C@@H](C)c2cnc(-n3cc(F)cn3)cn2)CC[C@H](c2nc(Nc3cc(C)[nH]n3)c3cnn(CC(F)F)c3n2)CC1 [Compound C7]	< 10 nM	< 10 nM	< 10 nM	–
CO[C@]1(C(=O)N[C@@H](C)c2cnc(-n3cc(F)cn3)cn2)CC[C@H](c2nc(Nc3cc(C)[nH]n3)c3cnn(C)c3n2)CC1 [Compound C8]	< 10 nM	< 10 nM	< 10 nM	–
[2H]C([2H])([2H])n1ncc2c(Nc3cc(C)[nH]n3)nc([C@H]3CC[C@](OC)(C(=O)N[C@@H](C)c4cnc(-n5cc(F)cn5)cn4)CC3)nc21 [Compound C9]	< 10 nM	< 10 nM	< 10 nM	–
COCCn1ncc2c(Nc3cc(C)[nH]n3)nc([C@H]3CC[C@](OC)(C(=O)N[C@@H](C)c4cnc(-n5cc(F)cn5)cn4)CC3)nc21 [Compound C10]	< 10 nM	< 10 nM	10 to 50 nM	–
CO[C@]1(C(=O)N[C@@H](C)c2cnc(-n3cc(F)cn3)cn2)CC[C@H](c2nc(Nc3cc(C)[nH]n3)c3cnn(C4CC(F)(F)C4)c3n2)CC1 [Compound C11]	10 to 50 nM	10 to 50 nM	10 to 50 nM	–
CO[C@]1(C(=O)N[C@@H](C)c2cnc(-n3cc(F)cn3)cn2)CC[C@H](c2nc(Nc3cc(C)[nH]n3)c3cnn(CC4CC4)c3n2)CC1 [Compound C12]	< 10 nM	< 10 nM	10 to 50 nM	–
CCn1ncc2c(Nc3cc(C)[nH]n3)nc([C@H]3CC[C@](OC)(C(=O)N[C@@H](C)c4cnc(-n5cc(F)cn5)s4)CC3)nc21 [Compound C13]	< 10 nM	< 10 nM	10 to 50 nM	–
CO[C@]1(C(=O)N[C@@H](C)c2cnc(-n3cc(F)cn3)s2)CC[C@H](c2nc(Nc3cc(C)[nH]n3)c3cnn(C4CC4)c3n2)CC1 [Compound C14]	< 10 nM	< 10 nM	10 to 50 nM	–
CCn1ncc2c(Nc3cc(C)[nH]n3)nc([C@H]3CC[C@](OC)(C(=O)N[C@@H](C)c4csc(-n5cc(F)cn5)n4)CC3)nc21 [Compound C15]	< 10 nM	< 10 nM	10 to 50 nM	–
CO[C@]1(C(=O)N[C@@H](C)c2csc(-n3cc(F)cn3)n2)CC[C@H](c2nc(Nc3cc(C)[nH]n3)c3cnn(C4CC4)c3n2)CC1 [Compound C16]	< 10 nM	< 10 nM	10 to 50 nM	–
CO[C@]1(C(=O)N[C@@H](C)c2ccc(-n3cc(F)cn3)nc2)CC[C@H](c2nc(Nc3cc(C)[nH]n3)c3cnn(CCF)c3n2)CC1 [Compound C18]	< 10 nM	< 10 nM	< 10 nM	–
CO[C@]1(C(=O)N[C@@H](C)c2cnc(-n3cc(F)cn3)cn2)CC[C@H](c2nc(Nc3cc(C)[nH]n3)c3cnn(C4CC4)c3n2)CC1 [Compound C20]	< 10 nM	< 10 nM	< 10 nM	–
CO[C@]1(C(=O)N[C@@H](C)c2cnc(-n3cc(F)cn3)cn2)CC[C@H](c2nc(Nc3cc(C)[nH]n3)c3cnn(C4COC4)c3n2)CC1 [Compound C21]	10 to 50 nM	10 to 50 nM	10 to 50 nM	–
CCCn1ncc2c(Nc3cc(C)[nH]n3)nc([C@H]3CC[C@](OC)(C(=O)N[C@@H](C)c4cnc(-n5cc(F)cn5)cn4)CC3)nc21 [Compound C22]	10 to 50 nM	10 to 50 nM	10 to 50 nM	–
CO[C@]1(C(=O)N[C@@H](C)c2cnc(-n3cc(F)cn3)cn2)CC[C@H](c2nc(Nc3cc(C)[nH]n3)c3cnn(CC(F)(F)F)c3n2)CC1 [Compound C23]	< 10 nM	< 10 nM	10 to 50 nM	RET inhibitory activity / inhibition effect (in words) (Ba/F3-KIF5B-RET; summary of Table 1, especially Ba/F3-KIF5B-RET-V804M and Ba/F3-KIF5B-RET-V804L): superior to that of Control Example 3
CO[C@]1(C(=O)N[C@@H](C)c2cnc(-n3cc(F)cn3)cn2)CC[C@H](c2nc(Nc3cc(C)[nH]n3)c3cn(CC(F)(F)F)nc3n2)CC1 [Control Example 3, reference compound]	10 to 50 nM	10 to 50 nM	> 50 nM	–
